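Five concentrations, 48 hours, 96-well plates. Abbreviation: GI50, concentration required for 50% inhibition of growth.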 Active and inactive are the calls of the source. Rule as the data show it: active = GI50 up to about 1.1 µM and inactive = higher.
Columns and labels:
Experiment in all cases: inhibition of tumour cell growth, NCI panel, 48 h
NCI-H23 = test system: NCI-H23
OVCAR-5 = test system: OVCAR-5
SF-295 = test system: SF-295
OVCAR-8 = test system: OVCAR-8
A549 = test system: A549
RXF 393 = test system: RXF 393
OVCAR-4 = test system: OVCAR-4
SR = test system: SR
SNB-78 = test system: SNB-78
MOLT-4 = test system: MOLT-4
SF-268 = test system: SF-268
DMS-273 = test system: DMS-273
XF498 = test system: XF498
MDA-MB-435 = test system: MDA-MB-435
MDA-N = test system: MDA-N
MDA-MB-231 = test system: MDA-MB-231
PC-3 = test system: PC-3
T47D = test system: T47D
OVCAR-3 = test system: OVCAR-3
Hs-578T = test system: Hs-578T

Compound | GI50 (NCI-H23) | GI50 (OVCAR-5) | GI50 (SF-295) | GI50 (OVCAR-8) | GI50 (A549) | GI50 (RXF 393) | GI50 (OVCAR-4) | GI50 (SR) | GI50 (SNB-78) | GI50 (MOLT-4) | GI50 (SF-268) | GI50 (DMS-273) | GI50 (XF498) | GI50 (MDA-MB-435) | GI50 (MDA-N) | GI50 (MDA-MB-231) | GI50 (PC-3) | GI50 (T47D) | GI50 (OVCAR-3) | GI50 (Hs-578T)
CCOC(=O)C(C(=O)OCC)c1cc(-c2cc3ccccc3o2)oc(=O)c1C#N | 16 µM (inactive) | 18.5 µM (inactive) | 22.2 µM (inactive) | 21.4 µM (inactive) | 33.4 µM (inactive) | 19.6 µM (inactive) | 26.5 µM (inactive) | 24.5 µM (inactive) | 18 µM (inactive) | 21.6 µM (inactive) | 34.9 µM (inactive) | 25.9 µM (inactive) | 19 µM (inactive) |  |  |  |  |  |  | 
Brc1ccccc1-c1ncc(-c2ccccc2)o1 | 29.4 µM (inactive) | 66.5 µM (inactive) | 33.9 µM (inactive) | 37.1 µM (inactive) | 44.7 µM (inactive) | 21.7 µM (inactive) | 29.4 µM (inactive) |  |  | 14.2 µM (inactive) | 27.9 µM (inactive) |  |  | 23.6 µM (inactive) | 31 µM (inactive) | 38 µM (inactive) | 34.2 µM (inactive) | 9.29 µM (inactive) | 22 µM (inactive) | 10.3 µM (inactive)
CCOC(=O)C(OP(=O)(OCC)OCC)C(F)(F)F (stereo not drawn) | > 100 µM (inactive) | > 100 µM (inactive) |  |  |  | > 100 µM (inactive) |  | > 100 µM (inactive) |  | > 100 µM (inactive) | > 100 µM (inactive) |  |  | > 100 µM (inactive) | > 100 µM (inactive) | > 100 µM (inactive) |  | > 100 µM (inactive) | > 100 µM (inactive) | > 100 µM (inactive)
O=C(NC(Cc1ccc(I)cc1)C(=O)O)c1ccc(Br)cc1 (stereo not drawn) | > 100 µM (inactive) | > 100 µM (inactive) | > 100 µM (inactive) | > 100 µM (inactive) | > 100 µM (inactive) | > 100 µM (inactive) | > 85.5 µM (inactive) |  | > 100 µM (inactive) | > 72.9 µM (inactive) | > 100 µM (inactive) | > 100 µM (inactive) | > 77.6 µM (inactive) |  |  |  |  |  | 89.7 µM (inactive) | 
Cc1cccc(C(O)c2cccnc2)c1O (stereo not drawn) | > 100 µM (inactive) | 39.2 µM (inactive) | > 100 µM (inactive) | > 100 µM (inactive) | > 100 µM (inactive) | > 100 µM (inactive) |  | > 100 µM (inactive) |  | > 100 µM (inactive) | > 100 µM (inactive) |  |  | > 100 µM (inactive) | > 100 µM (inactive) | > 100 µM (inactive) | > 100 µM (inactive) | > 100 µM (inactive) | > 100 µM (inactive) | > 100 µM (inactive)
O=C(c1ccccc1)C1C(c2ccccc2)N1S(=O)(=O)c1ccccc1 (stereo not drawn) | > 100 µM (inactive) | > 100 µM (inactive) | > 100 µM (inactive) | > 100 µM (inactive) | > 100 µM (inactive) | > 100 µM (inactive) | > 100 µM (inactive) |  |  | > 100 µM (inactive) | > 100 µM (inactive) |  |  | > 100 µM (inactive) | > 100 µM (inactive) | > 100 µM (inactive) | > 100 µM (inactive) | > 100 µM (inactive) | > 100 µM (inactive) | > 100 µM (inactive)
Nc1nnc2ccc(Cl)cc2[n+]1[O-] | 30.1 µM (inactive) | > 100 µM (inactive) | > 100 µM (inactive) | 24.9 µM (inactive) |  | 29.8 µM (inactive) |  | 46.3 µM (inactive) |  | 35.1 µM (inactive) | 38 µM (inactive) |  |  | 57 µM (inactive) | 37.6 µM (inactive) | 37.9 µM (inactive) | > 100 µM (inactive) | 44.9 µM (inactive) |  | 41.7 µM (inactive)
O=c1c(-c2ccccc2)c(SCCN2CCCCCC2)n(-c2ccccc2)c(=S)n1-c1ccccc1 | 68.9 µM (inactive) | 21.1 µM (inactive) | 83.9 µM (inactive) | 80 µM (inactive) |  | 17.2 µM (inactive) | 15.5 µM (inactive) | 21.8 µM (inactive) |  | 13.4 µM (inactive) |  |  |  | 33 µM (inactive) |  |  |  |  | 32.7 µM (inactive) | 39.8 µM (inactive)
CC1=CC[C@H](C)C(C)(C)C1/C=C/C(C)=C/CC[C@@]1(CO)[C@H](CCCO)/C(=C(/C)C=O)CC[C@]1(C)O (stereo partly drawn) | 10.2 µM (inactive) | 23.6 µM (inactive) | 1.23 µM (inactive) | 15 µM (inactive) | 0.877 µM (active) | 14.6 µM (inactive) |  | 0.493 µM (active) | 13.2 µM (inactive) | 1.57 µM (inactive) | 7.46 µM (inactive) | 2.2 µM (inactive) | 7.41 µM (inactive) |  |  |  |  |  |  | 

Reference: ChEMBL document CHEMBL1201862, “PubChem BioAssay data set” (2004)
